From PMC10056986 (Pharmaceuticals, 2023)

Experiments:
[1] = test system: Baloxavir-resistant influenza A/PR/8/34 (H1N1) (PA I38T); type: cell-based, Influenza A virus; conditions: read-out: EC50 (mean ± SD)
[2] = test system: Oseltamivir-resistant influenza virus strain A/Weiss/43 (H1N1)-5; assay: microbe, parasite or virus in culture; type: cell-based; conditions: unidentified influenza virus, H1N1, MDCK, read-out: EC50 (mean ± SD)
[3] = test system: Oseltamivir-resistant influenza virus strain A/Weiss/43 (H1N1)-4; assay: microbe, parasite or virus in culture; type: cell-based; conditions: unidentified influenza virus, H1N1, MDCK, read-out: EC50 (mean ± SD)
[4] = test system: influenza A virus with PA I38T substitution; conditions: cited from earlier work

Structure (SMILES) | EC50 [1] [nM] | EC50 [2] [nM] | EC50 [3] [nM] | EC50 change due to PA I38T substitution [4]
O=C(O)[C@H]1C2CCC(CC2)[C@@H]1Nc1nc(-c2c[nH]c3ncc(F)cc23)ncc1F [VX-787, reference compound] | 0.434 ± 0.052 | 0.216 ± 0.053 | 0.234 ± 0.094 | 
O=C1c2c(O)c(=O)ccn2N([C@@H]2c3ccccc3SCc3c2ccc(F)c3F)[C@@H]2COCCN12 [Baloxavir] | 89.4 ± 11.9 |  |  | 30-50 fold
CCOC(=O)C1=C[C@@H](OC(CC)CC)[C@H](NC(C)=O)[C@@H](N)C1 [Oseltamivir] |  | > 100000 | > 100000 | 
O=C(O)[C@H]1C2CCC(CC2)[C@@H]1Nc1nc(-c2n[nH]c3ncc(F)cc23)nc(C2CC2)c1F [ZSP1273] | 0.028 ± 0.013 | 0.017 ± 0.004 | 0.014 ± 0.006 | 
